Earlier results as cited in US5998415A, “Bicyclic heteroaryl-alkylene-(homo)piperazinones and thione analogues thereof, their preparation, and their use of as selective agonists of 5-HT1 -like receptors” (Merck Sharp & Dohme Ltd., priority 1995, dated 1999).

What was measured:
[1] = humans, therapeutic doses
[2] = test system: human 5-HT1Dα and 5-HT1Dβ receptor subtypes; settings: cf. WO-A-91/17174, Table 1

CNS(=O)(=O)Cc1ccc2[nH]cc(CCN(C)C)c2c1 [sumatriptan]
adverse cardiovascular events (in words) [1]: certain adverse cardiovascular events
discrimination between the human 5-HT1Dα and 5-HT1Dβ receptor subtypes (in words) [2]: barely discriminates between the human 5-HT1Dα and 5-HT1Dβ receptor subtypes
